Data set [1] has as its system liver of rats. Put plainly: Catalase (CAT) activity in the liver. Format: in vivo, rat. The conditions noted are these: one day after application, single dose. Here is the method:
Catalase activity was measured at 25 °C, pH 7.0, at 240 nm. Enzyme activity was calculated using the molar extinction coefficient ([…]), and expressed as IU/gprotein.
(§1) Determination of protein concentration was carried out according to the method by Bradford using bovine serum albumin as standard.

In data set [2] the test system is male Wistar rats. The conditions noted are these: THC p.o.; days 1 and 3.
Description: (§2) Serum biochemical parameters included AST, ALT, bilirubin, ALP, and total protein. These were determined using a chemical analyser (Beckman Coulter AU 480; Brea, CA, USA). Activities of AST, ALT, and ALP were expressed as U/L. The amount of total protein was expressed as g/L. Bilirubin concentration (total bilirubin) was expressed as µmol/L.
Data set [3] has as its system male Wistar rats. Briefly: Serum alanine aminotransferase (ALT) activity. Format: in vivo, rat.
Description: as §2
The subject of data set [4] is hepatocytes of male Wistar rats. Briefly: Alkaline comet assay, primary DNA damage. The class given is in vivo, rat. Here is the method: The obtained cellular suspension was immediately used for preparation of agarose microgels.
To prepare agarose microgels, we used fully frosted precleaned microscope slides (Surgipath®, Cambridgeshire, UK) precoated with 0.6% normal melting point (NMP) agarose. Suspensions of liver cells (V = 10 µL per slide) were mixed with 0.5% low melting point (LMP) agarose, placed on slides and covered with a top layer of 0.5% LMP agarose. The microgels were lysed overnight at 4 °C in a freshly prepared buffer (2.5 mol/L NaCl (Kemika, Zagreb, Croatia), 100 mmol/L Na2EDTA, 10 mmol/L Tris-HCl, 1% Na-laurylsarcosinate, pH = 10) with 1% Triton X-100 and 10% dimethyl sulfoxide (Kemika, Zagreb, Croatia). After lysis, microgels were denatured (20 min) in alkaline denaturation/electrophoresis buffer (300 mM NaOH (Kemika, Zagreb, Croatia) and 1 mM Na2EDTA, pH > 13). Electrophoresis lasted for 20 min, at 4 °C, 25 V, and 300 mA. The microgels were then neutralised using a Tris-HCl buffer (0.4 mol/L; pH = 7.5). Before microscopic analysis, the slides were stained with ethidium bromide (20 µg/mL). They were analysed using an epifluorescence microscope (Olympus BX50, Tokyo, Japan) equipped with appropriate filters, at 200× magnification. The level of DNA damage in individual cells was estimated using Comet Assay IV™ software (Instem-Perceptive Instruments Ltd., Suffolk, Halstead, UK). One well-trained scorer performed all of the comet measurements on the coded/blinded slides. Random fields were selected and the comets were captured at a constant depth of the gel, avoiding edges and occasional dead cells. A total of 200 comets per rat were measured on replicate slides in two independent evaluations (altogether 1000 individual comet measurements per each experimental group were performed). Tail length (presented in micrometres) and tail intensity (i.e., DNA% in tail) were chosen as indicators of DNA damage.

Data set [5] deals with male Wistar rats. Put plainly: Serum bilirubin (total bilirubin). The conditions noted are these: seven days of continuous intake. The class given is in vivo, rat.
Description: as §2
Data set [6] has as its system male Wistar rats. Briefly: Serum markers of liver function, overall. The conditions noted are these: 1-, 3-, 7-day treatments. Format: in vivo, rat.
Description: as §2
For the next data set, the system named is Sprague-Dawley rats. The conditions noted are these: 3 mg/kg b.w. i.p. for seven days; cited from earlier work.
Data set [7] relates to male Wistar rats. The conditions noted are these: THC 7 mg/kg b.w. p.o.; all three timepoints.
Description: as §2
For data set [8] the following is noted: low doses (<5 µg/mL or <5 µmol/L, or <1 joint/day); cited from earlier work.
The test system of data set [9] is liver of rats. Put plainly: Superoxide dismutase (SOD) activity in the liver. The class given is in vivo, rat. The conditions noted are these: after 3 days. The protocol:
Total superoxide dismutase (SOD) activity was measured spectrophotometrically according to Flohé and Ötting. The reduction rate of cytochrome c by superoxide radicals was monitored at 550 nm utilizing the xanthine–xanthine oxidase system as the source for O2^•−. SOD competed for the superoxide and decreased the reduction rate of cytochrome c. One unit of SOD was defined as the amount of enzyme that inhibits the rate of cytochrome c reduction by 50%. Enzyme activity was expressed as IU/gprotein.
as §1

Another data set deals with rats. The conditions noted are these: cited from earlier work.
A further data set deals with CDF1 mice. The arrangement: method as in PMID 9247609. The conditions noted are these: i.p. at 100 mg/kg for six days; cited from earlier work.
Another data set concerns liver cells of rats. The arrangement: method as in PMID 19663821. The conditions noted are these: 24 h and 72 h; eleven-fold lower IRI dose than tested here; cited from earlier work.
The test system of a further data set is humans. The arrangement: method as in PMID 11489791. The conditions noted are these: cited from earlier work.
In data set [10] the test system is male Wistar rats. Briefly: Survival and clinical signs of intoxication. Format: in vivo, rat. The conditions noted are these: IRI 100 mg/kg b.w. i.p. once; own observations same as literature. The protocol:
A total of 60 rats were randomly assigned to the following four groups. Group 1: control rats were given the same daily volume of the vehicle sesame oil as the THC-treated group. […] Group 3: rats orally administered THC dissolved in sesame oil at a daily dose of 7 mg/kg b.w. for one, three and seven days, respectively. […] Each group comprised 5 animals with minimal weight variation (300 g ± 10%).
Rats had free access to food and drinking water. Their body weights were regularly monitored and the doses of THC were adjusted accordingly. Survival and clinical signs of intoxication were also evaluated on a daily basis.

The subject of data set [11] is liver of rats. Briefly: Lipid peroxidation (TBARS) in the liver. The class given is in vivo, rat. The protocol:
The concentration of thiobarbituric reactive substances (TBARS), as a measure of lipid peroxidation, was determined using a modification of the method by Drury et al.. Butylated hydroxytoluene (BHT; 5 µL; 0.2% w/v) and phosphoric acid (750 µL; 1% v/v) were added to 50 µL samples. After mixing, 250 µL 0.6% (w/w) thiobarbituric acid (TBA) and 445 µL H2O were added and the reaction mixture was incubated in a water bath at 90 °C for 30 min. The mixture was cooled and absorbance was measured at 532 nm on a Shimadzu UV Probe Spectrophotometer (Kyoto, Japan). The concentration of TBARS was calculated using standard curves of increasing 1,1,3,3-tetramethoxypropane concentrations, and expressed as µmol/L.

The conditions of data set [12]: cited from earlier work.

We go through five molecules from publication PMC6100385, “Irinotecan and Δ^9-Tetrahydrocannabinol Interactions in Rat Liver: A Preliminary Evaluation Using Biochemical and Genotoxicity Markers” (Molecules : A Journal of Synthetic Chemistry and Natural …, 2018).

Regarding `CCCCCc1cc(O)c2c(c1)OC(C)(C)C1CCC(C)=CC21` (stereo not drawn) [THC, Δ^9-tetrahydrocannabinol], the “CAT activity in liver vs control and IRI-treated rats” value in the data set on liver of rats [1] was “significantly increased”. For the same molecule, in the data set with male Wistar rats [2], the “ALP level in serum” value is on record as “increased”. Besides, the “ALT activity in serum vs IRI-treated rats” value with male Wistar rats [3] (3-day exposure) was “statistically significant increase”. Further, the “ALT level in serum” value in the data set on male Wistar rats [3] (THC p.o., day 3) is “somewhat increased”. The “comet tail length, mean” value in data set [4] (continuous 7-day oral exposure, compared to shorter treatments) was “significantly higher mean value of tail length”. The risk for genotoxicity result in data set [4] (shorter exposures (1-, 3-day) to THC p.o.) was “not associated with a significant risk for genotoxicity”. Further, the “serum bilirubin level vs single IRI and combined treatment” value in the data set on male Wistar rats [5] was “higher”. In addition, the “liver function / serum liver markers, overall” value in the data set with male Wistar rats [6] was “affected ALP and AP levels more than single IRI”. Further, in the data set with Sprague-Dawley rats, the “lipid peroxidation in the liver” value is given as “slightly elevated”, the “liver CAT activity vs control rats” value was “decreased” and the “liver SOD activity vs control rats” value is on record as “non-significant decrease”. Besides, in the data set on male Wistar rats [7], the “AST activity in serum, trend” value is recorded as “trend towards increased AST activity”. In addition, in data set [8], the genotoxic adverse outcomes is on record as “usually not associated with genotoxic adverse outcomes”.
As for `CCc1c2c(nc3ccc(OC(=O)N4CCC(N5CCCCC5)CC4)cc13)-c1cc3c(c(=O)n1C2)COC(=O)[C@]3(O)CC` [IRI, 7-ethyl-10-[4-(1-piperidino)-1-piperidino] carbonyloxycamptothecin], the “SOD activity in liver vs control” value with liver of rats [9] is “significantly higher”. Besides, the “maximum tolerated dose for rats” value in the data set on rats (per week) is recorded as 100 mg/kg b.w. In the data set with rats (single dose of 200 mg/kg), the “mortality and gastrointestinal mucositis” value is “low mortality, but caused reproducible gastrointestinal mucositis”. Also, in the data set on CDF1 mice, the “lipid peroxidation in the liver” value is reported as “increases of IRI-potentiated lipid peroxidation”. In addition, the “comet tail intensity, mean, vs control and THC groups” value in data set [4] (1-day treatment) and in data set [4] (3-day treatment) was “significantly increased” each time. Besides, the “comet tail length, mean, vs control and THC groups” value in data set [4] (1-day treatment) and in data set [4] (3-day treatment) was “significantly increased” each time. In data set [4] (7-day treatment), the “comet tail intensity, mean, rank among groups” value is on record as “highest mean value”. Besides, in [4] (all timepoints), the “DNA damage, rank among groups” value is on record as “highest DNA damage”. Further, in [4] (single IRI), the “primary DNA damage, 1-day vs 3 days” value is “lower than after 3 days”. For the same molecule, the “level of DNA damage with prolonged treatment duration” value in [4] (single IRI, seven days) is “slightly diminished”. Also, in the data set with liver cells of rats, the “primary DNA damage in liver cells” value is listed as “significant increase”. The “maximal and recommended tolerated human doses” value in the data set with humans was 10–30 mg/m^2/day. Besides, the “severe diarrhoea and gastrointestinal toxicity” value in the data set with male Wistar rats [10] was “did not result with severe diarrhoea and gastrointestinal toxicity”. The “TBARS concentration in liver, IRI-treated vs control” value in the data set on liver of rats [11] (3- and 7-day timepoints) is listed as “not significant”. Besides, the “TBARS concentration in liver (lipid peroxidation), rank among groups” value in the data set on liver of rats [11] (one day following application) is given as “highest level of lipid peroxidation”.
Regarding `CCc1c2c(nc3ccc(OC(=O)N4CCC(NCCCCC(=O)O)CC4)cc13)-c1cc3c(c(=O)n1C2)COC(=O)C3(O)CC` (stereo not drawn) [APC, 7-ethyl-10-[4-N-(5-aminopentanoic acid)-1-piperidino]carbonyloxycamptothecin], the cytotoxic potential result in [12] is “significantly lower cytotoxic potential”.
On to `CCc1c2c(nc3ccc(OC(=O)N4CCC(N)CC4)cc13)-c1cc3c(c(=O)n1C2)COC(=O)[C@]3(O)CC` [NPC, 7-ethyl-10-[4-(1-piperidino)-1-amino]-carbonyloxycamptothecin], for which the cytotoxic potential result in [12] is given as “significantly lower cytotoxic potential”.
For `CCc1c2c(nc3ccc(O)cc13)-c1cc3c(c(=O)n1C2)COC(=O)[C@]3(O)CC` [SN-38], the “cytotoxicity relative to the parent compound (IRI)” value in data set [12] was 100–1000 fold.
